The record followed here is patent US20190092789A1, “HETEROBICYCLIC PYRIMIDINONE COMPOUNDS AND THEIR USE IN THE TREATMENT OF MEDICAL DISORDERS” (priority 2015, published 2019).

Converted amounts (≈) assume the structure as drawn.

In series [1] the target is T1, glucocerebrosidase (Gcase) (Homo sapiens, UniProt P04062).
T1 construct: 100 μL of micellar solution containing 10 nM GCase and 100 nM saposin C (Enzo ALX-201-262-C050)
T1 sequence (P04062 40-536): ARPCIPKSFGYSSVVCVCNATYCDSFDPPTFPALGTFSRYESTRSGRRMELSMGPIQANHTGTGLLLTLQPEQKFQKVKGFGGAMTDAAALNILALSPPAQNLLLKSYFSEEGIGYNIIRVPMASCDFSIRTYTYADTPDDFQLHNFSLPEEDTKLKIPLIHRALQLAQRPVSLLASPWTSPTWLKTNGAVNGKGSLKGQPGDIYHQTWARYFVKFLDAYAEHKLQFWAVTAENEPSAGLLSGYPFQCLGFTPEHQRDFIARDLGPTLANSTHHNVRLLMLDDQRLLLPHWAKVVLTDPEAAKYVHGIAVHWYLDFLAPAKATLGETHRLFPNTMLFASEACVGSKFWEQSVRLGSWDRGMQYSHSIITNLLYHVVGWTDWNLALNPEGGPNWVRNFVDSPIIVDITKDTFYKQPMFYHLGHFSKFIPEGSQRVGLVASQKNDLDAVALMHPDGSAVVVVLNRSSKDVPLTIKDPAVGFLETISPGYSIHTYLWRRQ
The series can be described thus: Glucocerebrosidase (Gcase) activation assay, 4-methylumbelliferyl-beta-D-glucopyranoside substrate, with saposin C. The format is biochemical. The following applies: 10 nM GCase, 100 nM saposin C, pH 4.7; for activation at 0.1 µM: read-out: Percent Gcase Activation, 0.1 μM Test Compound; for activation at 1 µM: 0.25 h, read-out: Percent Gcase Activation, 1 μM Test Compound. How it is done: A 484 μL aliquot of a 1.0 mg/mL solution of phosphatidylserine (PS) (Sigma P7769) in chloroform was evaporated under a stream of nitrogen for 1 hour. The lipid film was dissolved over 4 minutes of vigorous vortexing in 40 mL of 176 mM K2HPO4/50 mM citric acid (pH 4.7) containing 7.5 μL of triton X-100, resulting in a mixed micellar preparation with a composition of 0.32 mM triton and 0.37 mol % PS. 4-Methylumbelliferyl-beta-D-glucopyranoside (ACROS-337025000) was dissolved in the micellar solution to a final concentration of 2 mM for use as the reaction substrate.
Test compounds were diluted to the desired concentrations with dimethylsulfoxide (DMSO) from 10 mM stocks, and 0.41 μL of the DMSO compound mixture was added to 100 μL of micellar solution containing 10 nM GCase and 100 nM saposin C (Enzo ALX-201-262-C050). Pre-incubation was allowed to occur for 30 minutes at room temperature, after which the reaction was initiated by combining 25 μL of substrate solution with 25 μL of compound/GCase/saposin mixture. The reaction proceeded for 15 minutes at room temperature and was stopped by adding 150 μL of 1M glycine, pH 12.5. The endpoint of the reaction was monitored by measuring fluorescence intensity (excitation: 365 nm; emission: 440 nm) on a SpectraMax i3 instrument (Molecular Devices). Test compounds were screened at 1.0 and 0.1 μM final concentration, and subsequent 8-point dose response curves were obtained using 3-fold dilutions from a maximum final concentration of 5 μM.

Series [2] in a line: Compound solubility in water.

Usually solubility stands for the concentration that dissolves in the medium under given conditions.

As to `CCc1ccc(NC(=O)c2cnc3occn3c2=O)cc1`, in series [1] (0.1 μM test compound), the activation at 0.1 µM is under 5%. The activation at 1 µM in series [1] (1 μM test compound) is 5 to 10%.

Turning to `CCC(C)c1ccc(NC(=O)c2cnc3occn3c2=O)cc1` (stereo not shown), the activation at 0.1 µM in series [1] (0.1 μM test compound) was under 5%. In addition, in series [1] (1 μM test compound), the activation at 1 µM was over 10%. For the same compound, the solubility in series [2] worked out at 0.3 µg/mL (≈ 0.964 µM).

On to `CCC(C)c1ccc(NC(=O)c2cnc3n(C)ccn3c2=O)cc1` (stereo not shown), for which the activation at 0.1 µM in series [1] (0.1 μM test compound) is under 5%. In series [1] (1 μM test compound), the activation at 1 µM is over 10%. For the same compound, in series [2], the solubility turned out to be 0.5 µg/mL (≈ 1.54 µM).

Take `CCC(C)c1ccc(NC(=O)c2cnc3[nH]ccn3c2=O)cc1` (stereo not shown): the activation at 0.1 µM in series [1] (0.1 μM test compound) is under 5%. Moreover, in series [1] (1 μM test compound), the activation at 1 µM is 5 to 10%. This compound also yielded a solubility in series [2] of 1.4 µg/mL (≈ 4.51 µM).

As for `O=C(NC1CCc2ccccc21)c1cnc2occn2c1=O` (stereo not shown), the activation at 0.1 µM in series [1] (0.1 μM test compound) is under 5%. The activation at 1 µM in series [1] (1 μM test compound) lay within 5 to 10%. In series [2], this compound showed a solubility of 25.1 µg/mL (≈ 85 µM).

Consider `O=C(Nc1ccc2c(c1)OCCO2)c1cnc2occn2c1=O`, for which, in series [1] (0.1 μM test compound), the activation at 0.1 µM is under 5%. In addition, in series [1] (1 μM test compound), the activation at 1 µM is under 5%. This compound also displayed a solubility in series [2] of 5.5 µg/mL (≈ 17.6 µM).

As for `CCN1CCN(c2ccc(NC(=O)c3cnc4occn4c3=O)cc2)CC1`, the activation at 0.1 µM in series [1] (0.1 μM test compound) is under 5%. Also, the activation at 1 µM in series [1] (1 μM test compound) is under 5%. This compound registered a solubility in series [2] of 40.2 µg/mL (≈ 109 µM).

`O=C(Nc1ccc(N2CCCCC2)cc1)c1cnc2occn2c1=O`: the activation at 0.1 µM in series [1] (0.1 μM test compound) is under 5%. The activation at 1 µM in series [1] (1 μM test compound) was under 5%. In series [2], this compound returned a solubility of 2.2 µg/mL (≈ 6.5 µM).

For the compound `C[C@@H](NC(=O)c1cnc2occn2c1=O)c1ccccc1`, the activation at 0.1 µM in series [1] (0.1 μM test compound) was under 5%. The activation at 1 µM in series [1] (1 μM test compound) is under 5%. The compound also showed a solubility in series [2] of 25.6 µg/mL (≈ 90.4 µM).

Turning to `O=C(NC1CCC(c2ccccc2)CC1)c1cnc2occn2c1=O` (stereo not shown), in series [1] (0.1 μM test compound), the activation at 0.1 µM was under 5%. The activation at 1 µM in series [1] (1 μM test compound) was over 10%. Moreover, in series [2], the solubility turned out to be 58 µg/mL (≈ 172 µM).

For the compound `CN1Cc2ccc(NC(=O)c3cnc4occn4c3=O)cc2C1`, the activation at 0.1 µM in series [1] (0.1 μM test compound) was under 5%. The activation at 1 µM in series [1] (1 μM test compound) lay within 5 to 10%. The concentration in solution in series [2] (solubility) was 16.6 µg/mL (≈ 53.5 µM).

Consider `O=C(NC1CCc2ccccc2C1)c1cnc2occn2c1=O` (stereo not shown), for which the activation at 0.1 µM in series [1] (0.1 μM test compound) fell in the range of 5 to 10%. The activation at 1 µM in series [1] (1 μM test compound) is under 5%. Besides, in series [2], the concentration in solution (solubility) came to 22.6 µg/mL (≈ 73.1 µM).

On to `C#Cc1ccc(NC(=O)c2cnc3occn3c2=O)cc1`, for which the activation at 0.1 µM in series [1] (0.1 μM test compound) is 5 to 10%. The activation at 1 µM in series [1] (1 μM test compound) is 5 to 10%. The compound also came in with a solubility in series [2] of 5.5 µg/mL (≈ 19.7 µM).

With `O=C(NC1CCCc2ccccc21)c1cnc2occn2c1=O` (stereo not shown), in series [1] (0.1 μM test compound), the activation at 0.1 µM is under 5%. Besides, the activation at 1 µM in series [1] (1 μM test compound) is over 10%. Moreover, the solubility in series [2] is 30.2 µg/mL (≈ 97.6 µM).

“N-(4-butylcyclohexyl)-6-oxo-3,4-dihydro-2H,6H-pyrimido[2,1-b][1,3]thiazine-7-carboxamide”: the “Percent Gcase Activation, 0.1 μM Test Compound” value in series [1] (0.1 μM test compound) is on record as “+ (less than 5% Gcase activation)”. Besides, the “Percent Gcase Activation, 1 μM Test Compound” value in series [1] (1 μM test compound) was “+++ (Gcase activation greater than 10%)”.
